Measurements as given in PubChem BioAssay (NCI).
Where “and” joins values, the source holds several entries; their conditions need not be identical. Identical values can stand only once.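 Tested at 5 concentrations; 48 h exposure; 96-well plates; endpoints linearly interpolated, else capped at highest concentration. GI50 is the concentration that inhibits growth by half. TGI: concentration producing complete growth inhibition.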 Where a SMILES comes first, the peptide text is derived from it. [ ]: non-standard residue; d: D form. NMeY = CN[C@@H](Cc1ccc(O)cc1)C(=O)O; dNMeF = CN[C@H](Cc1ccccc1)C(=O)O; Sar = CNCC(=O)O

Tests used:
Experiment in all cases: growth of human tumour cells (NCI), 48 h
[1] = test system: SK-MEL-2 melanoma
[2] = test system: TK-10 renal
[3] = test system: HS 578T breast
[4] = test system: OVCAR-3 ovarian
[5] = test system: MALME-3M melanoma
[6] = test system: CAKI-1 renal
[7] = test system: HT29 colon
[8] = test system: UO-31 renal
[9] = test system: HL-60(TB) leukemia
[10] = test system: NCI-H226 lung

SMILES | GI50 [1] [µM] | TGI [2] | GI50 [3] [µM] | TGI [3] [µM] | GI50 [4] [µM] | TGI [4] | TGI [5] | GI50 [6] [µM] | TGI [6] | GI50 [7] [µM] | GI50 [8] [µM] | TGI [8] | GI50 [9] [µM] | TGI [9] [µM] | GI50 [10] [µM] | TGI [10] | TGI [1] [µM] | TGI [7] [µM] | GI50 [2] [µM] | GI50 [5] [µM]
Cc1ccc(N=Nc2c(N)nn(-c3ccccc3)c2N)cc1 | 0.464 | > 100 µM | 1.94 | > 31.4 | 0.705 | 3.58 µM | > 100 µM | 1.28 | > 23.1 µM | 0.353 | 7.97 | > 100 µM | 0.638 | > 21.6 | 59.4 | > 100 µM | – | – | – | –
CN(C)CCNC(=O)Cn1ccc(=O)c2ccc([N+](=O)[O-])cc21 | – | > 100 µM | – | > 100 | – | > 100 µM | > 100 µM | – | > 100 µM | – | – | > 100 µM | – | > 100 | – | > 100 µM | > 100 | > 100 | – | –
CC[C@H](C)[C@@H]1NC(=O)[C@H](Cc2ccc(O)cc2)N(C)C(=O)[C@H](Cc2ccccc2)NC(=O)CN(C)C(=O)[C@@H]2CCCN2C(=O)[C@@H](Cc2ccccc2)N(C)C(=O)[C@H](CC(C)C)NC1=O (cyclo(F[NMeY]IL[dNMeF]P[Sar])) | 0.327 | 9.65 µM | 0.137 | 1.25 | 0.248 | 3.39 µM | 1.81 µM | 0.805 | 11.3 µM | 0.243 | 2.63 | 13.1 µM | 0.605 | 3.3 | 0.768 | 8.18 µM | 1.91 | 7.2 | 1.22 | 0.164
C[C@]12CCC3c4ccc(O)cc4CCC3C1Cc1ccc(O)cc12 (some centres undefined) | 11 | 40.2 µM | 5.87 | 42.6 | 5.71 | 26.5 µM | 29.1 µM | 10.8 | 45.6 µM | 6.13 | 11.8 | 28.7 µM | 1.08 | 3.29 | 19 | 36.6 µM | 26.3 | 20.6 | 13.6 | 10.8
CCOC(=O)Cn1c(C)c(/C=N/NC(=O)c2cc3c(ccc4ccccc43)o2)c2ccccc21 | 0.77 | 3.92 µM | 0.514 | 25.2 | 0.319 | 1.87 µM | 3.22 µM | 0.575 | 2.37 µM | 0.355 | 0.753 | 2.61 µM | 0.345 | 7.83 | 0.801 | 5.39 µM | 7.05 | 1.9 | 1.26 | 0.575
CO[C@H]1C[C@@H]2CC[C@@H](C)[C@@](O)(O2)C(=O)C(=O)N2CCCC[C@H]2C(=O)O[C@H]([C@H](C)C[C@@H]2CC[C@@H](OP(C)(C)=O)[C@H](OC)C2)CC(=O)[C@H](C)/C=C(\C)[C@@H](O)[C@@H](OC)C(=O)[C@H](C)C[C@H](C)/C=C/C=C/C=C/1C | 2.31 | 22.3 µM | – | 37.1 | 11.1 | 23.3 µM | 16.8 µM | 10.8 | 25.9 µM | 8.07 | < 0.01 | 16.1 µM | 17.5 | 39.8 | 1.71 | 24.2 µM | 22.4 | 24 | – | < 0.01
O=C1c2ccccc2-c2n[nH]c3cccc1c23 | 22.5 | 52 µM and 76.2 µM | 21 | > 100 | 23.8 | 92.1 µM and > 100 µM | 58.9 µM and > 86.8 µM | 2.98 | 18.2 µM and 22.6 µM | 12.9 | 4.02 | > 100 µM and 55.9 µM | 9.8 | > 100 | 10.3 | > 100 µM and 78.4 µM | > 100 | > 100 | 7.44 | 24.1
COc1ccc(-c2cc(-c3cn[nH]c3-c3ccccn3)ccn2)cc1 | > 25 | > 25 µM | > 25 | > 25 | > 25 | > 25 µM | > 25 µM | > 25 | > 25 µM | > 25 | 20.4 | > 25 µM | > 25 | > 25 | > 25 | > 25 µM | > 25 | > 25 | > 25 | > 25
CC1(O)CC2(O)C=CC3=C(C(=O)c4cccc(O)c4C3=O)C2(O)C(=O)C1O (centres undefined) | – | 3.12 µM | – | 10.7 | – | 5.19 µM | 0.966 µM | – | 2.24 µM | – | – | 4 µM | – | 2.17 | – | 17.6 µM | 9.07 | 5.95 | – | –
CCN(CC)CCCOc1cc(O)c2c(=O)cc(-c3ccccc3)oc2c1 | 10.1 | 25.3 µM | 10.2 | 26 | 15.5 | 34.1 µM | 25 µM | 13.9 | 38.8 µM | 2.36 | 3.74 | 15.9 µM | 3.98 | 15.3 | 13.6 | 29.7 µM | 27 | 12.7 | 10.3 | 9.81
COc1ccc2c(c1)sc1nc(-c3ccccc3)c(-c3ccc(O)c(OC)c3)n12 | 21.3 | > 100 µM | > 100 | > 100 | 10.1 | 63.8 µM | > 100 µM | 8.54 | > 100 µM | 3.56 | 81 | > 100 µM | 5.33 | > 100 | 22 | > 100 µM | > 100 | > 100 | > 100 | > 100
CO/N=C(/COc1c(-c2ccccc2)oc2ccccc2c1=O)c1ccc(OC)cc1 | > 100 | > 100 µM | > 100 | > 100 | > 100 | > 100 µM | > 100 µM | > 100 | > 100 µM | 51.6 | 61.3 | > 100 µM | 21.5 | > 100 | > 100 | > 100 µM | > 100 | > 100 | > 100 | > 100
COc1cc(Cn2ccc3c2-c2oncc2CC3)cc(OC)c1 | 8.29 | > 100 µM | 2.38 | 12.2 | 2.99 | 9.79 µM | 37.9 µM | 2.79 | 39.5 µM | 3.17 | 6.09 | 41.6 µM | 2.22 | 8.94 | 15.5 | > 100 µM | > 100 | > 100 | 8.04 | 4.25
Nc1nc(N)c2c(ccc3nccc32)[nH]1 | 10.1 | > 86.8 µM | > 21.8 | > 64.7 | 7.68 | 36.6 µM | 33.6 µM | 2.82 | 12.8 µM | 1.67 | 4.14 | 31.1 µM | 2.53 | > 78.8 | 15.2 | > 88.9 µM | 37.1 | > 73.9 | 17.4 | 5.28
